ChEMBL document CHEMBL5370643, “Discovery of MK-1468: A Potent, Kinome-Selective, Brain-Penetrant Amidoisoquinoline LRRK2 Inhibitor for the Potential Treatment of Parkinson's Disease” (J Med Chem, 2023)

What was measured:
[1] = target: Leucine-rich repeat serine/threonine-protein kinase 2 (Homo sapiens, UniProt Q5S007, G2019S); assay: Inhibition of recombinant N-terminal GST-fused LRRK2 […] mutant (970 to 2527 residues) (unknown origin) using LRRKtide peptide as substrate assessed as inhibition of substrate phosphorylation preincubated with compound for 15 mins followed by substrate addition and measured after 90 mins in presence of ATP by TR-FRET assay
Leucine-rich repeat serine/threonine-protein kinase 2, sequence (Q5S007 whole entry G2019S, the tested form may be a part): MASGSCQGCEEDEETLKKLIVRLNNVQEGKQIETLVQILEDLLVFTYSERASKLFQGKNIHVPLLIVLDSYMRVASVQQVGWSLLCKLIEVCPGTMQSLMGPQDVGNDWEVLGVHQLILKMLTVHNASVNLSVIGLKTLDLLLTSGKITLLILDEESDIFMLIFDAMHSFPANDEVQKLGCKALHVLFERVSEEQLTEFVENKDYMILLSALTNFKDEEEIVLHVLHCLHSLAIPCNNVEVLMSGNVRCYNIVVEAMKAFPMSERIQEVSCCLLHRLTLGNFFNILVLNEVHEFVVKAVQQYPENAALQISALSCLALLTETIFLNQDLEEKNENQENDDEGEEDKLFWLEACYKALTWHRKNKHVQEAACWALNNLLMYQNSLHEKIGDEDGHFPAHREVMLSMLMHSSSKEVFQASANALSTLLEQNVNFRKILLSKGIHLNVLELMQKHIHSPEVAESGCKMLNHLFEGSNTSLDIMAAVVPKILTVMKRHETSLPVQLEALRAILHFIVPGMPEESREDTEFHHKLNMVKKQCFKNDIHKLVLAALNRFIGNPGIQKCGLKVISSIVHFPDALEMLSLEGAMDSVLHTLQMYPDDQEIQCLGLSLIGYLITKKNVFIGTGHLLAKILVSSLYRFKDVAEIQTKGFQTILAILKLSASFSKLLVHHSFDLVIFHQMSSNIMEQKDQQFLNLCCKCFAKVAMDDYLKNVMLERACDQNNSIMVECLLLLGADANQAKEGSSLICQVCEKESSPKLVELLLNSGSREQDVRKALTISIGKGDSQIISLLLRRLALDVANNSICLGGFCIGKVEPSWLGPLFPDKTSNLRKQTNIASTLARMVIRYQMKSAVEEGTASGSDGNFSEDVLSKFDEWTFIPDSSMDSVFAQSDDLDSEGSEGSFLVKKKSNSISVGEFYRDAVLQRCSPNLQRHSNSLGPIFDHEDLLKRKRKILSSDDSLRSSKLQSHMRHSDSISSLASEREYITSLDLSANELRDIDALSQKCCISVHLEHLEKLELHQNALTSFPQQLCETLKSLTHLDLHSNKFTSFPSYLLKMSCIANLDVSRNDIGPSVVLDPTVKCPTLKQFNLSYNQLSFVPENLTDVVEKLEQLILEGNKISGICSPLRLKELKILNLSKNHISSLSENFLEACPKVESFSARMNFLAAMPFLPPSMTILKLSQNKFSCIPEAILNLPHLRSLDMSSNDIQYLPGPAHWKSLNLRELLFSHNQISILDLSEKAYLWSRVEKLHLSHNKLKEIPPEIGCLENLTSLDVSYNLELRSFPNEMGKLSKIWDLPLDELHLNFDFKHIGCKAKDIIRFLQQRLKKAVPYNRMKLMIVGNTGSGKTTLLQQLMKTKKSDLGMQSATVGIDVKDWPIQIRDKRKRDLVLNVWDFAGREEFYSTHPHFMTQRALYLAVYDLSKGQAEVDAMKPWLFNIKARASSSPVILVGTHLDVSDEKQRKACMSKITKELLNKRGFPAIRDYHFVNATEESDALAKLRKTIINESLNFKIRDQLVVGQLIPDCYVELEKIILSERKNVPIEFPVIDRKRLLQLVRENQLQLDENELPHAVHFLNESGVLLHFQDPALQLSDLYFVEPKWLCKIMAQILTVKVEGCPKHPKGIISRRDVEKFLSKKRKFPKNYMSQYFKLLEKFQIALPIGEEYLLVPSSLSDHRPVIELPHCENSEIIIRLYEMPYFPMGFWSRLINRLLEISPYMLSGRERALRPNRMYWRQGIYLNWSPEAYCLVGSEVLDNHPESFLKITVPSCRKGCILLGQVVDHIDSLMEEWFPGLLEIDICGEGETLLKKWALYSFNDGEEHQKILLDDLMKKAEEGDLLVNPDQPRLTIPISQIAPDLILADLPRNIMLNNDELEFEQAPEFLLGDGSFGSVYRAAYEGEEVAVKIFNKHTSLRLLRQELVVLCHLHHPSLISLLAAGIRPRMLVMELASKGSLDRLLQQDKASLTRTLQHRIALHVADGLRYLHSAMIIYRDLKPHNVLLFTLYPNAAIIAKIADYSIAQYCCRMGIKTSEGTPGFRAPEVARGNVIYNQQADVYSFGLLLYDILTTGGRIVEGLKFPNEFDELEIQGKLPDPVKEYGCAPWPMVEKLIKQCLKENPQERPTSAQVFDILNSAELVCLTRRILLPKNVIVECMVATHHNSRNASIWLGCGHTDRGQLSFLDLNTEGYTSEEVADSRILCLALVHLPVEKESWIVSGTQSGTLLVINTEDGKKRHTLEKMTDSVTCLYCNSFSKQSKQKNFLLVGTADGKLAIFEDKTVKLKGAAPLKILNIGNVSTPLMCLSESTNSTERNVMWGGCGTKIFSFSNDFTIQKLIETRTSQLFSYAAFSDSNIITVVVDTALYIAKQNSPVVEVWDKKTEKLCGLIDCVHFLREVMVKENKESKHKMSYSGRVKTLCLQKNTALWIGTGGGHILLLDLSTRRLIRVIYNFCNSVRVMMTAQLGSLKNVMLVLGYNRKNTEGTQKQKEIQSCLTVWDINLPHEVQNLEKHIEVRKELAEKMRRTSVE

[2] = target: Leucine-rich repeat serine/threonine-protein kinase 2 (Homo sapiens) (UniProt Q5S007); assay: Inhibition of LRRK2 in human PBMC using LRRKtide peptide as substrate assessed as Ser935 dephosphorylation preincubated with compound for 15 mins followed by substrate addition and measured after 90 mins in presence of ATP by TR-FRET assay; assay type: cell-based; details: time 105.0 min
Leucine-rich repeat serine/threonine-protein kinase 2 (Homo sapiens), sequence (Q5S007 whole entry): as the sequence (Q5S007 whole entry G2019S, the tested form may be a part) above, with S2019G counted along it

[3] = Total clearance in Wistar-Han rat at 0.1 mg/kg, iv administered as cassette dose by LC-MS/MS analysis; assay type: ADME, organism-based; details: in vivo
[4] = Intrinsic clearance in Wistar-Han rat at 0.1 mg/kg, iv administered as cassette dose by LC-MS/MS analysis; assay type: ADME, organism-based; details: in vivo
[5] = MRT in Wistar-Han rat at 0.1 mg/kg, iv administered as cassette dose by LC-MS/MS analysis; assay type: ADME, organism-based; details: in vivo
[6] = target: Voltage-gated inwardly rectifying potassium channel KCNH2 (Homo sapiens, UniProt Q12809); assay: Inhibition of hERG expressed in CHO cells by QPatch voltage clamp assay
Voltage-gated inwardly rectifying potassium channel KCNH2, sequence (Q12809 whole entry): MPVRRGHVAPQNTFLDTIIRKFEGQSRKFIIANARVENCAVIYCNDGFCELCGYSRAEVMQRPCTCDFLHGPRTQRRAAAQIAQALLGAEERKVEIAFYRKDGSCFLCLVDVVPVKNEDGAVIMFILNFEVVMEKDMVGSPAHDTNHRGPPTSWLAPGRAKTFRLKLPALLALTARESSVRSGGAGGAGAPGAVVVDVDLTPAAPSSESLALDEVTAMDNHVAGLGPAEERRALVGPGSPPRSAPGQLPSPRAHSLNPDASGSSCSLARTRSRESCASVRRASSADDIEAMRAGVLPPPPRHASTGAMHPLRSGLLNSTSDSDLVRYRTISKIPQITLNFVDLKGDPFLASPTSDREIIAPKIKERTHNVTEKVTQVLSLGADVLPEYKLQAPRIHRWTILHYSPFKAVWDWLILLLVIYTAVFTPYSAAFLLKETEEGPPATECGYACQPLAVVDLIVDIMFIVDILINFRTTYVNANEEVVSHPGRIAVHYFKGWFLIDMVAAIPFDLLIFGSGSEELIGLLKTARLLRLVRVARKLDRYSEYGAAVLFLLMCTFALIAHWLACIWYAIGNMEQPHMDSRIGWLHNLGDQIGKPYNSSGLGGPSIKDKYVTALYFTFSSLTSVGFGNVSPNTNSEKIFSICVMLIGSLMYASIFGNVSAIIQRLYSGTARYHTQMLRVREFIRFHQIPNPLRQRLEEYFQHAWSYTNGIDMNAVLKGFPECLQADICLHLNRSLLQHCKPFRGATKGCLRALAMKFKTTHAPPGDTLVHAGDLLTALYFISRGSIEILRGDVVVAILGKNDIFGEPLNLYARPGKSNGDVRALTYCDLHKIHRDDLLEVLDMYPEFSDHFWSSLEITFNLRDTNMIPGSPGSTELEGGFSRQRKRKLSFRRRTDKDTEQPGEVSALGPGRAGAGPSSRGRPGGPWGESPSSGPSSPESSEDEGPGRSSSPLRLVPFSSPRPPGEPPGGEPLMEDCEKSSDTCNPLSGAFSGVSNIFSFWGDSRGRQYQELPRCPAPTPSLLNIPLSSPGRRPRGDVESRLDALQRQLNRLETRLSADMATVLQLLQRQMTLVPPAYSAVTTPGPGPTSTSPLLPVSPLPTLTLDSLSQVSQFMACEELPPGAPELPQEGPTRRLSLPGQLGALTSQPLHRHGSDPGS

[7] = Total clearance in Beagle dog at 0.05 mg/kg, iv administered as cassette dose by LC-MS/MS analysis; assay type: ADME, organism-based, Canis lupus familiaris; details: in vivo
[8] = Intrinsic clearance in Beagle dog at 0.05 mg/kg, iv administered as cassette dose by LC-MS/MS analysis; assay type: ADME, organism-based, Canis lupus familiaris; details: in vivo
[9] = MRT in Beagle dog at 0.05 mg/kg, iv administered as cassette dose by LC-MS/MS analysis; assay type: ADME, organism-based, Canis lupus familiaris; details: in vivo
[10] = Lipophilicity, logD of compound at pH 7 by HT-HPLC/DAD analysis; assay type: physicochemical; details: buffer
[11] = Mutagenicity in Salmonella typhimurium TA1535 at 30 to 5000 ug/plate incubated for 48 hrs in absence of Wistar-Han rat S9 fraction by Ames test; assay type: toxicity; details: salmonella enterica subsp. enterica serovar typhimurium, s9, 48 h
[12] = Mutagenicity in Salmonella typhimurium TA98 at 30 to 5000 ug/plate incubated for 48 hrs in absence of Wistar-Han rat S9 fraction by Ames test; assay type: toxicity; details: salmonella enterica subsp. enterica serovar typhimurium, s9, 48 h
[13] = Mutagenicity in Salmonella typhimurium TA100 at 30 to 5000 ug/plate incubated for 48 hrs in absence of Wistar-Han rat S9 fraction by Ames test; assay type: toxicity; details: salmonella enterica subsp. enterica serovar typhimurium, s9, 48 h
[14] = Mutagenicity in Salmonella typhimurium TA1535 at 30 to 5000 ug/plate incubated for 48 hrs in presence of Wistar-Han rat S9 fraction by Ames test; assay type: toxicity, subcellular; details: salmonella enterica subsp. enterica serovar typhimurium, s9, 48 h
[15] = Mutagenicity in Salmonella typhimurium TA98 at 30 to 5000 ug/plate incubated for 48 hrs in presence of Wistar-Han rat S9 fraction by Ames test; assay type: toxicity, subcellular; details: salmonella enterica subsp. enterica serovar typhimurium, s9, 48 h
[16] = Mutagenicity in Salmonella typhimurium TA100 at 30 to 5000 ug/plate incubated for 48 hrs in presence of Wistar-Han rat S9 fraction by Ames test; assay type: toxicity, subcellular; details: salmonella enterica subsp. enterica serovar typhimurium, s9, 48 h
[17] = target: T1, Serine/threonine-protein kinase BRSK1 (Homo sapiens, UniProt Q8TDC3); assay: Inhibition of BRSK1 (unknown origin)
T1 sequence (Q8TDC3 whole entry): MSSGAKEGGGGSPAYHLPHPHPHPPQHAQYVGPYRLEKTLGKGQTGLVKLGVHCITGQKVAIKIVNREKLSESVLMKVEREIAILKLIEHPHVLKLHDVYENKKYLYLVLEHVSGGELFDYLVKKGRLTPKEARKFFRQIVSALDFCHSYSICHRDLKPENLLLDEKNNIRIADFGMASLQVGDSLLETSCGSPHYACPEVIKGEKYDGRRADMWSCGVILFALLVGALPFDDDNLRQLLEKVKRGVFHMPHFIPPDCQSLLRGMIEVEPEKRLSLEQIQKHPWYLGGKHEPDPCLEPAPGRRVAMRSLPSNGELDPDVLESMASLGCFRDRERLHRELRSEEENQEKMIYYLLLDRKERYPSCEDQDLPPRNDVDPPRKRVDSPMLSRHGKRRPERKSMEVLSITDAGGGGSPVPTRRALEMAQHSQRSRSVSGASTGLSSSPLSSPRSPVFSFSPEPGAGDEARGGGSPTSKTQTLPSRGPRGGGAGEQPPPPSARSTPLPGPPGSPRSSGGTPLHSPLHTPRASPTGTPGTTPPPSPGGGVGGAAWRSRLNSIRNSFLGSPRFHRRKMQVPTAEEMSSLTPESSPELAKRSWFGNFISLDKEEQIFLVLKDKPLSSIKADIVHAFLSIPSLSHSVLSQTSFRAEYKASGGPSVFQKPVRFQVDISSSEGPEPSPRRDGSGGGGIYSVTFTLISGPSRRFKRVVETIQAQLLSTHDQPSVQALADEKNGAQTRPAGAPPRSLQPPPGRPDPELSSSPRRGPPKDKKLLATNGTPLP

[18] = Unbound brain-to-plasma concentration ratio in iv dosed Wistar-Han rat administered as cassette dose by LC-MS/MS analysis; assay type: ADME, organism-based; details: read-out: K(p,uu,brain)
[19] = Total clearance in Wistar-Han rat at 2 mg/kg, iv measured after 24 hrs by LC-MS/MS analysis; assay type: ADME, organism-based; details: in vivo
[20] = Intrinsic clearance in Wistar-Han rat at 2 mg/kg, iv measured after 24 hrs by LC-MS/MS analysis; assay type: ADME, organism-based; details: in vivo
[21] = MRT in Wistar-Han rat at 2 mg/kg, iv measured after 24 hrs by LC-MS/MS analysis; assay type: ADME, organism-based; details: in vivo
[22] = Oral bioavailability in Wistar-Han rat at 10 mg/kg measured after 24 hrs by LC-MS/MS analysis; assay type: ADME, organism-based; details: in vivo
[23] = system: rat Mdr1a P-gp; assay: Apparent permeability across apical to basolateral side in LLC-PK1 cells transfected with rat Mdr1a P-gp incubated for 3 hrs by LC-MS/MS analysis; details: pig
[24] = system: rat Mdrl1 P-gp; assay: Efflux ratio of apparent permeability across basolateral to apical over apical to basolateral side in MDCK cells transfected with rat Mdrl1 P-gp incubated for 3 hrs by LC-MS/MS analysis; details: dog, MDCK-MDR1
[25] = system: mouse BCRP; assay: Efflux ratio of apparent permeability across basolateral to apical over apical to basolateral side in MDCK-II cells transfected with mouse BCRP incubated for 3 hrs by LC-MS/MS analysis; details: dog
[26] = Oral bioavailability in Wistar-Han rat at 5 mg/kg measured after 24 hrs by LC-MS/MS analysis; assay type: ADME, organism-based; details: in vivo
[27] = Drug metabolism in rat assessed as amide hydrolysis mediated metabolite formation by MetID analysis; assay type: ADME
[28] = Drug metabolism in rat assessed as oxidative metabolism of piperazine-THF alcohol lysine region fragment by MetID analysis; assay type: ADME
[29] = Drug metabolism in dog assessed as oxidative metabolism of piperazine-THF alcohol lysine region fragment by MetID analysis; assay type: ADME, Canis lupus familiaris
[30] = Drug metabolism in dog assessed as amide hydrolysis mediated metabolite formation by MetID analysis; assay type: ADME, Canis lupus familiaris

Q: For `Cc1cc2cnc(NC(=O)C3CC34CC4)cc2cc1C1CCN([C@]2(C)COC[C@@H]2O)CC1` (some centres not stated), which IC50 [1] is on record?
A: < 0.08 nM

Q: And the fIC50 [2]?
A: 12 nM

Q: And the clearance [3]?
A: 31 mL/min/kg

Q: And the CL [4]?
A: 241 mL/min/kg

Q: And the MRT [5]?
A: 3.2 h

Q: What about the IC50 [6] of the same compound?
A: 4800 nM

Q: What about the clearance [7] of the same compound?
A: 10 mL/min/kg

Q: What about the CL [8] of the same compound?
A: 76 mL/min/kg

Q: What about the MRT [9] of the same compound?
A: 9.8 h

Q: And the logD [10]?
A: 3.6

Q: Which Activity [11] does the source give for `C[C@@]1(N2CCC(c3cc4cc(N)ncc4cc3Cl)CC2)COC[C@@H]1O` here?
A: Non-Toxic

Q: What about the Activity [12] of the same compound?
A: Non-Toxic

Q: And the Activity [13]?
A: Non-Toxic

Q: And the Activity [14]?
A: Non-Toxic

Q: What about the Activity [15] of the same compound?
A: Non-Toxic

Q: What about the Activity [16] of the same compound?
A: Non-Toxic

Q: Which Activity [11] does the source give for `C[C@@]1(N2CCN(c3cc4cc(N)ncc4cc3Cl)CC2)COC[C@@H]1O` here?
A: Non-Toxic

Q: And the Activity [12]?
A: Non-Toxic

Q: And the Activity [13]?
A: Non-Toxic

Q: And the Activity [14]?
A: Non-Toxic

Q: What about the Activity [15] of the same compound?
A: Non-Toxic

Q: What about the Activity [16] of the same compound?
A: Non-Toxic

Q: What does the source list for `C[C@@]1(N2CCC(c3cc4cc(NC(=O)C5CC5)ncc4cc3Cl)CC2)COC[C@@H]1O`?
A: IC50 [1]: < 0.08 nM; fIC50 [2]: 4.5 nM; clearance [3]: 12 mL/min/kg; CL [4]: 684 mL/min/kg; MRT [5]: 3.2 h; IC50 [17]: 43 nM

Q: Which results are given for `Cn1ccc([C@H]2C[C@@H]2C(=O)Nc2cc3cc(C4CCN([C@]5(C)COC[C@@H]5O)CC4)c(Cl)cc3cn2)n1`?
A: fIC50 [2]: 1.2 nM; clearance [3]: 21 mL/min/kg; CL [4]: 731 mL/min/kg; MRT [5]: 2.6 h; Kp uu [18]: 0.3

Q: With `C[C@@]1(N2CCC(c3cc4cc(NC(=O)[C@H]5CC56CCOCC6)ncc4cc3Cl)CC2)COC[C@@H]1O` as the compound, how does the clearance [19] read?
A: 35 mL/min/kg

Q: What about the CL [20] of the same compound?
A: 875 mL/min/kg

Q: What about the MRT [21] of the same compound?
A: 2.7 h

Q: What about the bioavailability [22] of the same compound?
A: 67%

Q: What about the clearance [7] of the same compound?
A: 18 mL/min/kg

Q: And the CL [8]?
A: 422 mL/min/kg

Q: And the MRT [9]?
A: 12 h

Q: What does the source list for `CC(C)(O)[C@H]1C[C@H]1C(=O)Nc1cc2cc(C3CCN([C@]4(C)COC[C@@H]4O)CC3)c(Cl)cc2cn1`?
A: IC50 [1]: < 0.08 nM; clearance [3]: 22 mL/min/kg; CL [4]: 276 mL/min/kg; MRT [5]: 3.1 h; Papp A→B at 3 h [23]: 33 ×10⁻⁶ cm/s; efflux ratio at 3 h [24]: 9

Q: Which results are given for `CC1(N2CCC(c3cc4cc(NC(=O)C5CC5)ncc4cc3Cl)CC2)COC1`?
A: IC50 [1]: 3 nM; fIC50 [2]: 168 nM; clearance [3]: 10 mL/min/kg; CL [4]: 429 mL/min/kg; MRT [5]: 3.3 h; Papp A→B at 3 h [23]: 34 ×10⁻⁶ cm/s; efflux ratio at 3 h [24]: 0.9; efflux ratio at 3 h [25]: 1.1

Q: With `C[C@@]1(N2CCC(c3cc4cc(NC(=O)[C@H]5C[C@@H]5c5ccccn5)ncc4cc3Cl)CC2)COC[C@@H]1O` as the compound, how does the fIC50 [2] read?
A: 0.2 nM

Q: And the clearance [19]?
A: 13 mL/min/kg

Q: What about the CL [20] of the same compound?
A: 341 mL/min/kg

Q: What about the MRT [21] of the same compound?
A: 5.6 h

Q: What about the bioavailability [26] of the same compound?
A: 46%

Q: And the Drug metabolism [27]?
A: Metabolite_Notdetected

Q: And the Drug metabolism [28]?
A: Metabolite_Detected

Q: And the Drug metabolism [29]?
A: Metabolite_Detected

Q: What about the Drug metabolism [30] of the same compound?
A: Metabolite_Detected

Q: What does the source list for `Cn1cc(C(=O)Nc2cc3cc(C4CCN([C@]5(C)COC[C@@H]5O)CC4)c(Cl)cc3cn2)cn1`?
A: IC50 [1]: 0.8 nM; fIC50 [2]: 112 nM

Q: Which IC50 [1] does the source give for `Cn1cc([C@H]2C[C@@H]2C(=O)Nc2cc3cc(C4CCN([C@]5(C)COC[C@@H]5O)CC4)c(Cl)cc3cn2)cn1` here?
A: 0.5 nM

Q: What about the fIC50 [2] of the same compound?
A: 0.28 nM

Q: What about the clearance [3] of the same compound?
A: 17 mL/min/kg

Q: And the CL [4]?
A: 302 mL/min/kg

Q: And the MRT [5]?
A: 4.4 h

Q: And the Papp A→B at 3 h [23]?
A: 29 ×10⁻⁶ cm/s

Q: And the efflux ratio at 3 h [24]?
A: 12

Q: And the IC50 [6]?
A: 9500 nM

Q: With `COC(C)(C)[C@@H]1C[C@H]1C(=O)Nc1cc2cc(C3CCN([C@]4(C)COC[C@@H]4O)CC3)c(Cl)cc2cn1` as the compound, how does the clearance [3] read?
A: 41 mL/min/kg

Q: And the CL [4]?
A: 840 mL/min/kg

Q: And the MRT [5]?
A: 2.1 h

Q: And the Kp uu [18]?
A: 0.3
